Reference: patent publication US6545053B1, “Tricyclic compounds and drug compositions containing same” (Asahi Kasei Kogyo Kabushiki Kaisha, priority 1996, dated 2003)
Where a name gives a salt, the structure may show the parent alone. Read-outs that look alike come from different tables or passages of the source.

Target: T1, human β3 (Homo sapiens, UniProt P13945)
T1 construct: And then full length of human β3 gene was cloned using this fragment as a probe; expressed in transfected cells; host or cells: CHO cells (Chinese hamster ovary), pcDNA3 vector
Test: Human β3-agonist activity (cAMP in CHO cells transfected with human β3 gene)
Type: cell-based
Conditions: for Emax: CHO, read-out: Intrinsic activity (%)
Protocol: Human β3-agonist Activity
Human β3-agonist activity was examined using CHO cells (chinese hamster ovarian cells) to which pcDNA3 (in vitrogen) cells inserted human β3 gene was transfected. Human β3 fragment was obtained by PCR using human fat tissue cDNA (supplied from Clontech) with a β3 primer [Krief et al, J. Clin. Invest.
The cells were cultured in a HAM F-12 medium containing 10% of fetal bovine serum, 400 μg/ml of Geneticin (Gibco BRL). 100 U/ml penicillin and 100 μg/ml streptomycin. 5×10^5 cells were placed on a 6-well plate and cultured for 24 hours, after which the medium was changed to a HAM F-12 medium without serum and was kept for 2 hours. Each test compound was first dissolved in DMSO, and then diluted with a HAM F-12 medium containing 1 mM isobutylmethyl xanthine and 1 mM ascorbic acid. A 10-fold dilution in the range of 10^−5 to 10^−12 M was added into the cell.
After culturing for 30 minutes, culture medium was withdrawn, 0.5 ml of 1 N NaOH was added and was kept for 20 minutes. And then 0.5 ml of 1 N acetic acid was added with subsequent agitation and centrifugation. Finally the concentration of cAMP were analyzed using cAMP EIA KIT (Cayman). […] Isoprotelenol was purchased from Research Biochimicals International.

[1] = cAMP, CHO cells with human β3, read-out: ED50 (the source's name)

T1 sequence (P13945 whole entry, the tested form may be a part): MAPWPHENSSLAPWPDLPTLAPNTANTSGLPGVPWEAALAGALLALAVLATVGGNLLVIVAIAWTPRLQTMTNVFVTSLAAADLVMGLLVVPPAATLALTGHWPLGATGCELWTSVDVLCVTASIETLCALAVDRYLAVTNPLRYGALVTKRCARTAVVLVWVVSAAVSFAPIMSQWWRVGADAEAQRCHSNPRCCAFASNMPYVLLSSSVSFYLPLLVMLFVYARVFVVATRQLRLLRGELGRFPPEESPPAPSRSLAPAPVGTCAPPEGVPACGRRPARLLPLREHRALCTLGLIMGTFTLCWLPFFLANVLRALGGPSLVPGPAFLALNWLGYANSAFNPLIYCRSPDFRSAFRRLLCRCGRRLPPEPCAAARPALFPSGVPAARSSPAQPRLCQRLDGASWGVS

SMILES | EC50 | Emax | EC50 [1] | Intrinsic activity (%) (relative activity for isoproterenol, cAMP, CHO cells with human β3)
CN(Cc1ccccc1)S(=O)(=O)Nc1cc(C(O)CNCCOc2ccc3c(c2)[nH]c2ccccc23)ccc1O (racemic) [Example 87, (±)-N′-[5-[2-[2-(9H-Carbazol-2-yloxy)ethylamino]-1-hydroxyethyl]-2-hydroxyphenyl]-N-methyl-N-benzylsulfamide Hydrochloride] | 84 nM | 138% |  | 
CN(C)S(=O)(=O)Nc1cc([C@@H](O)CNCCOc2ccc3c(c2)oc2ccccc23)ccc1O [Example 75, (R)-N′-[5-[2-[2-(Dibenzofuran-3-yloxy)ethylamino]-1-hydroxyethyl]-2-hydroxyphenyl]-N,N-dimethylsulfamide Hydrochloride] | 88 nM | 105% |  | 
CC(=O)Nc1ccc2c(c1)Cc1cc(OCCNCC(O)c3cccc(NS(C)(=O)=O)c3)ccc1-2 (racemic) [Example 10, (±)-N-[3-[2-[2-(9H-7-Acetylaminofluoren-2-yloxy)ethylamino]-1-hydroxyethyl]phenyl]methanesulfonamide Hydrochloride] |  | 47% | 150 nM | 
CNS(=O)(=O)c1cc(C(O)CNCCOc2ccc3c(c2)[nH]c2ccccc23)ccc1O (racemic) [Example 66, (±)-N-methyl-[5-[2-[2-(9H-Carbazol-2-yloxy)ethylamino]-1-hydroxyethyl]-2-hydroxy]benzenesulfonamide Hydrochloride] |  | 106% | 72 nM | 
CN(C)S(=O)(=O)c1cc(C(O)CNCCOc2ccc3c(c2)[nH]c2ccccc23)ccc1O (racemic) [Example 89, (±)-N,N-Dimethyl-(5-[2-[2-(9H-carbazol-2-yloxy)ethylamino]-1-hydroxyethyl]-2-hydroxy]benzenesulfonamide Hydrochloride] |  | 73% | 350 nM | 
CN(C)S(=O)(=O)Nc1cc([C@H](O)CNCCOc2ccc3c(c2)oc2ccccc23)ccc1O [Example 76, (S)-N′-[5-[2-[2-(Dibenzofuran-3-yloxy)ethylamino]-1-hydroxyethyl]2-hydroxyphenyl]-N,N-dimethylsulfamide Hydrochloride] | 520 nM | 131% |  | 
CS(=O)(=O)Nc1cccc([C@@H](O)CNCCOc2ccc3c(c2)[nH]c2ccccc23)c1 [Example 14, (R)-N-[3-[2-[2-(9H-Carbazol-2-yloxy)ethylamino]-1-hydroxyethyl]phenyl]methanesulfonamide Hydrochloride] | 2.8 nM | 97% |  | 
COC(CNCCOc1ccc2c(c1)[nH]c1ccccc12)c1ccc(O)c(NS(C)(=O)=O)c1 (racemic) [Example 90, (±)-N-[5-[2-[2-(9H-Carbazol-2-yloxy)ethylamino]-1-methoxyethyl]-2-hydroxyphenyl]methanesulfonamide Hydrochloride] | 190 nM | 102% |  | 
CS(=O)(=O)Nc1cc(C(O)CNCCOc2ccc3c(c2)[nH]c2ccccc23)ccc1OCc1ccccc1 (racemic) [Example 1, (±)-N-[5-[2-[2-(9H-Carbazol-2-yloxy)ethylamino]-1-hydroxyethyl]-2-benzyloxyphenyl]methanesulfonamide Hydrochloride] | 340 nM | 80% |  | 
CS(=O)(=O)Nc1cc(C(O)CNCCOc2ccc3c(c2)sc2ccccc23)ccc1Cl (racemic) [Example 58, (±)-N-[5-[2-[2-(Dibenzothiophen-3-yloxy)ethylamino]-1-hydroxyethyl]-2-chlorophenyl]methanesulfonamide Hydrochloride] | 550 nM | 91% |  | 
CS(=O)(=O)Nc1cc([C@@H](O)CNCCOc2ccc3c(c2)[nH]c2ccccc23)ccc1O [Example 12, (R)-N-[5-[2-[2-(9H-Carbazol-2-yloxy)ethylamino]-1-hydroxyethyl]-2-hydroxyphenyl]methanesulfonamide Hydrochloride] | 0.14 nM | 113% |  | 
O=S(=O)(Cc1ccccc1)Nc1cccc(C(O)CNCCOc2ccc3c(c2)[nH]c2ccccc23)c1 (racemic) [Example 8, (±)-N-[3-[2-[2-(9H-Carbazol-2-yloxy)ethylamino]-1-hydroxyethyl]phenyl]phenylmethanesulfonamide Hydrochloride] | 720 nM | 47% |  | 
CS(=O)(=O)Nc1cc(C(O)CNCCOc2ccc3c(c2)[nH]c2ccccc23)ccc1Cl (racemic) [Example 6, (±)-N-[5-[2-[2-(9H-Carbazol-2-yloxy)ethylamino]-1-hydroxyethyl]-2-chlorophenyl]methanesulfonamide Hydrochloride] | 33 nM | 119% |  | 
CS(=O)(=O)Nc1cc(C(O)CNCCOc2ccc3c(c2)[nH]c2ccccc23)ccc1F (racemic) [Example 5, (±)-N-[5-[2-[2-(9H-Carbazol-2-yloxy)ethylamino]-1-hydroxyethyl]-2-fluorophenyl]methanesulfonamide Hydrochloride] | 66 nM | 114% |  | 
O=[N+]([O-])c1cc(C(O)CNCCOc2ccc3c(c2)[nH]c2ccccc23)ccc1O (racemic) [Example 18, (±)-2-[N-[2-(9H-Carbazol-2-yloxy)ethyl]amino]-1-(4-hydroxy-3-nitrophenyl)]ethanol Hydrochloride] |  | 90% | 32 nM | 
CNS(=O)(=O)c1cc([C@@H](O)CNCCOc2ccc3c(c2)[nH]c2ccccc23)ccc1O [Example 81, (R)-N-methyl-[5-(2-[2-(9H-Carbazol-2-yloxy)ethylamino]-1-hydroxyethyl]-2-hydroxy]benzenesulfonamide Hydrochloride] |  | 98% | 6.2 nM | 
CN(C)S(=O)(=O)Nc1cc([C@H](O)CNCCOc2ccc3c(c2)[nH]c2ccccc23)ccc1O [Example 74, (S)-N′-[5-[2-[2-(9H-Carbazol-2-yloxy)ethylamino]-1-hydroxyethyl]-2-hydroxyphenyl]-N,N-dimethylsulfamide Hydrochloride] | 0.74 nM | 114% |  | 
Nc1cccc(C(O)CNCCOc2ccc3c(c2)[nH]c2ccccc23)c1 (racemic) [Example 47, (±)2-[N-[2-(9H-Carbazol-2-yloxy)ethyl]amino]-1-(3-aminophenyl)]ethanol Hydrochloride] |  | 86% | 2000 nM | 
OC(CNCCOc1ccc2c(c1)[nH]c1ccccc12)c1ccccc1F (racemic) [Example 28, (±)-2-[N-[2-(9H-Carbazol-2-yloxy)ethyl]amino]-1-(2-fluorophenyl)ethanol Hydrochloride] | 1000 nM | 97% |  | 
C[C@H](COc1ccc2c(c1)[nH]c1ccccc12)NC[C@H](O)c1ccccc1 [Example 35, (R,R)-2-[N-[1-(9H-Carbazol-2-yloxy)propan-2-yl]amino]-1-phenylmethanol Hydrochloride] |  | 90% | 520 nM | 
CS(=O)(=O)Nc1cc([C@H](O)CNCCOc2ccc3c(c2)[nH]c2ccccc23)ccc1O [Example 13, (S)-N-[5-[2-[2-(9H-Carbazol-2-yloxy)ethylamino]-1-hydroxyethyl]-2-hydroxyphenyl]methanesulfonamide Hydrochloride] | 2.7 nM | 110% |  | 
OC(CNCCOc1ccc2oc3ccccc3c2c1)c1ccccc1 (racemic) [Example 34, (±)-2-[N-[2-(Dibenzofuran-2-yloxy)ethyl]amino]-1-phenyl ethanol Hydrochloride] | 4600 nM | 37% |  | 
CS(=O)(=O)Nc1cc([C@@H](O)CNCCOc2ccc3c(c2)[nH]c2ccccc23)ccc1Cl [Example 79, (R)-N-[5-[2-[2-(9H-Carbazol-2-yloxy)ethylamino]-1-hydroxyethyl]-2-chlorophenyl]methanesulfonamide Hydrochloride] | 1.2 nM | 107% |  | 
CC(=O)Nc1ccc2[nH]c3cc(OCCNCC(O)c4cccc(NS(C)(=O)=O)c4)ccc3c2c1.Cl (racemic) [Example 68, (±)-N-[3-[2-[2-(9H-6-(Acetylamino)carbazol-2-yloxy]ethylamino]-1-hydroxyethyl]phenyl]methanesulfonamide Hydrochloride] |  |  | 38 nM | 92%
CS(=O)(=O)Nc1cc([C@@H](O)CNCCOc2ccc3c(c2)[nH]c2ccccc23)ccc1F [Example 77, (R)-N-[5-[2-[2-(9H-Carbazol-2-yloxy)ethylamino]-1-hydroxyethyl]-2-fluorophenyl]methanesulfonamide Hydrochloride] | 21 nM | 100% |  | 
CS(=O)(=O)Nc1cc(C(O)CNCCOc2ccc3c(c2)sc2ccccc23)ccc1F (racemic) [Example 56, (±)-N-[5-[2-[2-(Dibenzothiophen-3-yloxy)ethylamino]-1-hydroxyethyl]-2-fluorophenyl]methanesulfonamide Hydrochloride] | 630 nM | 97% |  | 
CN(C)S(=O)(=O)Nc1cc([C@@H](O)CNCCOc2ccc3c(c2)[nH]c2ccccc23)ccc1O [Example 73, (R)-N′-[5-[2-[2-(9H-Carbazol-2-yloxy)ethylamino]-1-hydroxyethyl]-2-hydroxyphenyl]-N,N-dimethylsulfamide Hydrochloride] | 0.038 nM | 102% |  | 
CNS(=O)(=O)c1cccc(C(O)CNCCOc2ccc3c(c2)[nH]c2ccccc23)c1 (racemic) [Example 16, (±)-N-methyl-3-[2-[2-(9H-Carbazol-2-yloxy)ethylamino]-1-hydroxyethyl]benzenesulfonamide Hydrochloride] | 30 nM | 99% |  | 
